One test has as its system DLD-1 cells. Kind of test: Inhibition of proliferation, DLD-1 BRCA2 wt control (Cell Titre Glo 3D). It counts as cell-based. Particulars: for IC50: Homo sapiens. Put shortly: (§1)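 Luminescent Cell Titre Glo 3D readout, taken on day 12 for homologous-recombination-deficient DLD-1 BRCA2−/− and day 7 for the wild-type control, after compound refresh on day 6. Compounds spanned 10 μM to 0.51 nM in three-fold steps; IC50 defined as 50% reduction of average maximum signal.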

In a further test the test system is DLD-1 BRCA2−/− cells. The test is described as follows: Homologous recombination synthetic lethal inhibition of proliferation, DLD-1 BRCA2-/- (Cell Titre Glo 3D). It is filed as cell-based. Particulars: for IC50: Homo sapiens. Put shortly: as §1
Where [1] appears, read: DLD-1, 168 h, DLD-1 BRCA2 wt cells, 7 days, read-out: POLQ PD Prolif Lumin DLD1 mean pIC50 (converted).
The mark [2] stands for this setting: DLD-1, 288 h, DLD-1 BRCA2−/− cells, 12 days, read-out: POLQ PD Prolif Lumin BRCA2 −/− mean pIC50 (converted).
Setting [3] is: DLD-1, DLD1 BRCA2 wt cells, mean, read-out: POLQ PD Prolif Lumin DLD1 mean PIC50 (converted).
Where [4] appears, read: DLD-1, DLD-1 BRCA2 −/− cells, mean, read-out: POLQ PD Prolif Lumin BRCA2 −/− mean pIC50 (converted).
Where [5] appears, read: DLD-1, second proliferation column (c6), DLD-1 BRCA2 wt control, read-out: POLQ PD Prolif Lumin (converted).
Where [6] appears, read: DLD-1, first proliferation column (c5), DLD-1 BRCA2-/-, read-out: POLQ PD Prolif Lumin (converted).
The mark [7] stands for this setting: DLD-1, proliferation, luminescence, second Prolif column (c6), taken as DLD-1 BRCA2 wt control, read-out: POLQ PD Prolif Lumin (converted).
The mark [8] stands for this setting: DLD-1, proliferation, luminescence, taken as DLD-1 BRCA2-/-, read-out: POLQ PD Prolif Lumin (converted).

Read-outs that look alike come from different tables or passages of the source. A value given as a limit tells only on which side of the number the result lay.

Take `Cc1ccnc(Cn2c(-c3ccc(N4CC(C(N)=O)C4)cc3Cl)nc3c(OC4(C)CC4)ncnc32)c1` [Example T204, 1-(3-chloro-4-(6-(1-methylcyclopropoxy)-9-((4-methylpyridin-2-yl)methyl)-9H-purin-8-yl)phenyl)azetidine-3-carboxamide]: the IC50 with DLD-1 cells (DLD-1, DLD-1 BRCA2 wt control proliferation, column head only partly shown, read-out: POLQ PD Prolif Lumin (converted)) is more than 10 µM; in the test on DLD-1 BRCA2−/− cells (DLD-1, DLD-1 BRCA2-/- proliferation, column head only partly shown, read-out: POLQ PD Prolif Lumin (converted)), 0.631 µM.

`CN1CCN(CCOc2ccc(-c3nc4c(OC5(C)CC5)ncnc4n3Cc3cccnc3)c(Cl)c2)CC1` [Example H7, 8-(2-chloro-4-(2-(4-methylpiperazin-1-yl)ethoxy)phenyl)-6-(1-methylcyclopropoxy)-9-(pyridin-3-ylmethyl)-9H-purine]: the IC50 is 3.16 µM with DLD-1 cells (setting [1]) and 1 µM with DLD-1 BRCA2−/− cells (setting [2]).

`Cc1scnc1Cn1c(-c2ccc(OCCN3CCNCC3)cc2Cl)nc2c(OC3(C)CC3)ncnc21` [Example K12, 4-((8-(2-chloro-4-(2-(piperazin-1-yl)ethoxy)phenyl)-6-(1-methylcyclopropoxy)-9H-purin-9-yl)methyl)-5-methylthiazole]: the IC50 with DLD-1 cells (setting [1]) is more than 10 µM; with DLD-1 BRCA2−/− cells (setting [2]), 1.58 µM.

As for `CC(c1cc(Cl)ccn1)n1c(-c2ccc(OCCN3CCNCC3)cc2Cl)nc2c(OC3(C)CC3)ncnc21` (single isomer, unassigned; isomer 1) [Example S6, 8-(2-chloro-4-(2-(piperazin-1-yl)ethoxy)phenyl)-9-(1-(4-chloropyridin-2-yl)ethyl)-6-(1-methylcyclopropoxy)-9H-purine (Isomer 1)], the “POLQ PD Prolif Lumin DLD1 mean pIC50” value with DLD-1 cells (DLD-1 BRCA2 wt cells, 7 days) is given as less than 5.0. In addition, in the test on DLD-1 BRCA2−/− cells (DLD-1 BRCA2−/− cells, 12 days), the “POLQ PD Prolif Lumin BRCA2 −/− mean pIC50” value was determined as 6.5.

On to `CC1(Oc2ncnc3c2nc(-c2ccc(O[C@@H]4CCCNC4)cc2Cl)n3Cc2ccccc2)CC1` [Example D32, (R)-9-benzyl-8-(2-chloro-4-(piperidin-3-yloxy)phenyl)-6-(1-methylcyclopropoxy)-9H-purine], for which the IC50 in the test on DLD-1 cells (setting [1]) is 6.31 µM; in the test with DLD-1 BRCA2−/− cells (setting [2]), 0.126 µM.

Consider `COc1cccc(Cn2c(-c3ccc(OCCN4CCNCC4)cc3Cl)nc3c(OC4(C)CC4)ncnc32)n1` [Example K10, 8-(2-chloro-4-(2-(piperazin-1-yl)ethoxy)phenyl)-9-((6-methoxypyridin-2-yl)methyl)-6-(1-methylcyclopropoxy)-9H-purine], for which the IC50 with DLD-1 cells (setting [1]) is more than 10 µM; with DLD-1 BRCA2−/− cells (setting [2]) it was 1.58 µM.

Turning to `CC(=O)Nc1ccc(-c2nc3c(OC4(C)CC4)ncnc3n2Cc2cc(C)ccn2)c(Cl)c1` [Example T53, N-(3-chloro-4-(6-(1-methylcyclopropoxy)-9-((4-methylpyridin-2-yl)methyl)-9H-purin-8-yl)phenyl)acetamide], the results for the IC50 with DLD-1 cells (setting [3]) and in the test on DLD-1 BRCA2−/− cells (setting [4]) were more than 10 µM and 0.316 µM, respectively.

For `CC1(Oc2ncnc3c2nc(-c2ccc(OCCNCC(=O)O)cc2Cl)n3Cc2ccccc2)CC1` [Example D29, (2-(4-(9-benzyl-6-(1-methylcyclopropoxy)-9H-purin-8-yl)-3-chlorophenoxy)ethyl)glycine], the figures for the IC50 with DLD-1 cells (setting [1]) and with DLD-1 BRCA2−/− cells (setting [2]) were more than 10 µM and 5.01 µM, respectively.

For the compound `Cc1ccnc(Cn2c(-c3ccc(C(N)=O)cc3Cl)nc3c(OC4(C)CC4)ncnc32)c1` [Example T14, 3-chloro-4-(6-(1-methylcyclopropoxy)-9-((4-methylpyridin-2-yl)methyl)-9H-purin-8-yl)benzamide], the IC50 with DLD-1 cells (setting [3]) was more than 10 µM; in the test with DLD-1 BRCA2−/− cells (setting [4]), 0.501 µM.

With `COc1ccc(Cl)cc1Cn1c(-c2cccc(OCCCOCC(=O)O)c2Cl)nc2c(OC3(C)CC3)ncnc21` [Example U30, 2-(3-(2-chloro-3-(9-(5-chloro-2-methoxybenzyl)-6-(1-methylcyclopropoxy)-9H-purin-8-yl)phenoxy)propoxy)acetic acid], the IC50 in the test with DLD-1 cells (DLD-1, DLD1 BRCA2 wt, mean, read-out: POLQ PD Prolif Lumin DLD1 mean pIC50 (converted)) is more than 10 µM; in the test with DLD-1 BRCA2−/− cells (DLD-1, DLD-1 BRCA2 −/−, mean, read-out: POLQ PD Prolif Lumin BRCA2 −/− mean pIC50 (converted)), 0.02 µM.

With `Cc1ccnc(Cn2c(-c3ccc(NC(=O)[C@@H](C)O)cc3Cl)nc3c(OC4(C)CC4)ncnc32)c1` [Example T121, (R)-N-(3-chloro-4-(6-(1-methylcyclopropoxy)-9-((4-methylpyridin-2-yl)methyl)-9H-purin-8-yl)phenyl)-2-hydroxypropanamide], the IC50 with DLD-1 cells (setting [5]) was more than 10 µM; in the test with DLD-1 BRCA2−/− cells (setting [6]), 0.316 µM.

As for `CC1(Oc2ncnc3c2nc(-c2ccc(OCCN4CC[C@@H](O)C4)cc2Cl)n3Cc2cc(Cl)ccn2)CC1` [Example R2, (R)-1-(2-(3-chloro-4-(9-((4-chloropyridin-2-yl)methyl)-6-(1-methylcyclopropoxy)-9H-purin-8-yl)phenoxy)ethyl)pyrrolidin-3-ol], the IC50 in the test on DLD-1 cells (setting [1]) is more than 10 µM; with DLD-1 BRCA2−/− cells (setting [2]), 0.126 µM.

In the case of `Cc1ccnc(Cn2c(-c3ccc(S(N)(=O)=O)cc3Cl)nc3c(OC4(C)CC4)ncnc32)c1` [Example T9, 3-chloro-4-(6-(1-methylcyclopropoxy)-9-((4-methylpyridin-2-yl)methyl)-9H-purin-8-yl)benzenesulfonamide], the values for the IC50 in the test on DLD-1 cells (setting [3]) and in the test on DLD-1 BRCA2−/− cells (setting [4]) were more than 10 µM and 0.501 µM, respectively.

Consider `COc1ccc(Cn2c(-c3ccc(OCCN4CCNCC4)cc3Cl)nc3c(OC4(C)CC4)ncnc32)nc1` [Example T532, 8-(2-chloro-4-(2-(piperazin-1-yl)ethoxy)phenyl)-9-((5-methoxypyridin-2-yl)methyl)-6-(1-methylcyclopropoxy)-9H-purine], for which the IC50 was more than 10 µM in the test on DLD-1 cells (setting [5]) and 6.31 µM in the test on DLD-1 BRCA2−/− cells (setting [6]).

For `Cc1nc(Cn2c(-c3ccc(OCCN4CCNCC4)cc3Cl)nc3c(OC4(C)CC4)ncnc32)cs1` [Example K6, 4-((8-(2-chloro-4-(2-(piperazin-1-yl)ethoxy)phenyl)-6-(1-methylcyclopropoxy)-9H-purin-9-yl)methyl)-2-methylthiazole], the IC50 in the test with DLD-1 cells (setting [1]) is more than 10 µM; with DLD-1 BRCA2−/− cells (setting [2]) it was 3.98 µM.

Turning to `CN1CCN(CCOc2ccc(-c3nc4c(OC5(C)CC5)ncnc4n3Cc3cccc(Cl)c3)c(Cl)c2)CC1` [Example E2, 8-(2-chloro-4-(2-(4-methylpiperazin-1-yl)ethoxy)phenyl)-9-(3-chlorobenzyl)-6-(1-methylcyclopropoxy)-9H-purine], the IC50 in the test with DLD-1 cells (setting [1]) was 3.16 µM; in the test with DLD-1 BRCA2−/− cells (setting [2]) it was 0.0251 µM.

For the compound `CC1(Oc2ncnc3c2nc(-c2ccc(OCCN4CCNCC4)cc2Cl)n3Cc2cnc(Cl)s2)CC1` [Example T146, 2-chloro-5-((8-(2-chloro-4-(2-(piperazin-1-yl)ethoxy)phenyl)-6-(1-methylcyclopropoxy)-9H-purin-9-yl)methyl)thiazole], the IC50 in the test with DLD-1 cells (setting [5]) was more than 10 µM; with DLD-1 BRCA2−/− cells (setting [6]) it was 1.26 µM.

Turning to `COc1ccc(Cl)cc1Cn1c(-c2cccc(O[C@H]3C[C@@H](C(=O)O)C3)c2Cl)nc2c(OC3(C)CC3)ncnc21` [Example 52, (1s,3s)-3-(2-chloro-3-(9-(5-chloro-2-methoxybenzyl)-6-(1-methylcyclopropoxy)-9H-purin-8-yl)phenoxy)cyclobutane-1-carboxylic acid], the IC50 in the test with DLD-1 cells (DLD-1, 168 h, DLD-1 (BRCA2 wt control), 7 days, Cell Titre Glo 3D, read-out: POLQ PD Prolif Lumin DLD1 Mean pIC50 (converted)) is more than 10 µM; with DLD-1 BRCA2−/− cells (DLD-1, 288 h, DLD-1 BRCA2−/−, 12 days, Cell Titre Glo 3D, read-out: POLQ PD Prolif Lumin BRCA2 −/− Mean pIC50 (converted)), 0.0126 µM.

For the compound `CC1(Oc2ncnc3c2nc(-c2ccc(OCCCOCCC(=O)O)cc2Cl)n3Cc2cccc(Cl)c2)CC1` [Example T449, 3-(3-(3-chloro-4-(9-(3-chlorobenzyl)-6-(1-methylcyclopropoxy)-9H-purin-8-yl)phenoxy)propoxy)propanoic acid], the IC50 in the test on DLD-1 cells (setting [7]) is more than 10 µM; in the test with DLD-1 BRCA2−/− cells (setting [8]), 0.0501 µM.

For `COc1c(OCCN2CCNCC2)ccc(-c2nc3c(OC4(C)CC4)ncnc3n2Cc2ccccc2)c1Cl` [Example J3, 9-benzyl-8-(2-chloro-3-methoxy-4-(2-(piperazin-1-yl)ethoxy)phenyl)-6-(1-methylcyclopropoxy)-9H-purine], the IC50 in the test on DLD-1 cells (setting [1]) was 3.16 µM; in the test with DLD-1 BRCA2−/− cells (setting [2]), 0.501 µM.

As for `Cc1ccnc(Cn2c(-c3ccc(OCCN4CC(O)C4)cc3Cl)nc3c(OC4(C)CC4)ncnc32)c1` [Example 26, 1-(2-(3-Chloro-4-(6-(1-methylcyclopropoxy)-9-((4-methylpyridin-2-yl)methyl)-9H-purin-8-yl)phenoxy)ethyl)azetidin-3-ol], the IC50 was more than 10 µM with DLD-1 cells (setting [1]) and 0.501 µM with DLD-1 BRCA2−/− cells (setting [2]).

On to `CC(CCOc1ccc(-c2nc3c(OC4(C)CC4)ncnc3n2Cc2cc(C(F)(F)F)ccc2F)c(Cl)c1)C(=O)O` (racemic) [Example T395, 4-(3-chloro-4-(9-(2-fluoro-5-(trifluoromethyl)benzyl)-6-(1-methylcyclopropoxy)-9H-purin-8-yl)phenoxy)-2-methylbutanoic acid], for which the IC50 with DLD-1 cells (setting [7]) is more than 10 µM; in the test with DLD-1 BRCA2−/− cells (setting [8]), 0.1 µM.

These data come from patent US20250195530A1, “POLQ INHIBITORS” (ASTRAZENECA AB, priority 2022, published 2025).
